In brackets after ≈: the same amount, converted by molar mass. Like-named read-outs stand apart in the source and are kept apart here.
What was measured:
Format in all cases: physicochemical
Solubility in water = details: thermodynamic from solid, 25° C., maximum 10 mg/ml of parent free form
Method: This was measured by suspending enough compound in 0.25 ml of solvent (water) to give a maximum final concentration of 10 mg/ml of the parent free form of the compound. The suspension was equilibrated at 25° C. for 24 hrs followed by a pH check and filtration through a glass fibre C 96 well plate. The filtrate is then diluted down 101×. Quantitation was by HPLC with reference to a standard dissolved in DMSO at approx 0.1 mg/ml. Different volumes of the standard, diluted and undiluted tests were injected. The solubility was calculated by integration of the peak area found at the same retention time as the peak maximum in the standard injection. If there is sufficient solid in the filter plate the XRPD is normally checked for phase changes, hydrate formation, amorphization, crystallization etc.

[1] = Solid-state stability study of compound of formula (I) (appearance, HPLC content); details: 34 days
Method: Method/Technique. 2 mg samples of compound of formula (I), accurately weighed, were placed in 4-mL clear glass screw-cap vials. Samples were tested at initial and after 34 days stored at 5° C./Ambient Relative Humidity (AMRH) Closed, 30° C./60% RH Closed, 40° C./75% RH Open and 60° C./AMRH Closed.
Samples were inspected visually for appearance. Compound of formula (I) content values were determined by the HPLC method in Table 1. The % weight/weight (% w/w) values were measured relative to standard samples of compound of formula (I) Batch U12438/79/1. The % area values were obtained by dividing the compound of formula (I) peak area by the total peak area.

[2] = Solubility in organic solvents; details: organic solvent or mixture, read-out: Min solvent required (solubility)
Method: The solubility of the compound of formula (I) was determined in a wide range of organic solvents.

[3] = pKa determination (potentiometric titration, Sirius GlpKa); details: MeOH:H2O mixtures, extrapolated to 0% co-solvent, free base
Method: Two basic centres of the free base of the compound were measured for pKa. […] The pKa of the basic centre of the imidazole ring was measured to be 4.53.
pka determination was performed on a Sirius GlpKa instrument with D-PAS attachment. Measurements were made by potentiometric titration in MeOH:H2O mixtures at 25° C. The titration media was ionic strength adjusted with 0.15M KCl. The values found in the MeOH:H2O mixtures were extrapolated to 0% co-solvent via a Yasuda-Shedlovsky extrapolation.

Work on `COC(=O)CC[C@@H]1N=C(c2ccccn2)c2cc(Br)ccc2-n2c(C)cnc21` [LJC-039-034-1] yielded a solubility at 24 h (Solubility in water) of 7.8 mg/mL (≈ 17.8 mM).

With `COC(=O)CC[C@@H]1N=C(c2ccccn2)c2cc(Br)ccc2-n2c(C)cnc21` [compound of formula (I), Methyl 3-[(4S)-8-bromo-1-methyl-6-(2-pyridinyl)-4H-imidazol[1,2-a][1,4]benzodiazepin-4-yl]propanoate] the Appearance ([1]; 40 C./75% RH Open) was “Deliquesced yellow mass on bottom”, the Appearance ([1]; 60 C./AMRH Closed) was “Deliquesced dark yellow to orange” and the solubility ([2]; acetone) was 214 mg/mL. It also gave a solubility ([2]; acetonitrile) of 362 mg/mL, a solubility ([2]; ethanol) of 324 mg/mL and a solubility ([2]; ethyl acetate) of 218 mg/mL. It also gave a solubility ([2]; methanol) of 446 mg/mL, a solubility ([2]; propan-2-ol) of 454 mg/mL and a solubility ([2]; tetrahydrofuran) of 311 mg/mL. The solubility ([2]; toluene) was 460 mg/mL, the pKa ([3]; basic centre of the imidazole ring) was 4.53 and the pKa ([3]; basic centre of the pyridine ring) was 1.99.
